Consider eight molecules from US20240130988A1, “Use of stilbene compounds in the preparation of anti-tumor drugs” (Guangzhou AnHao Pharmaceutical Technology CO., LTD., priority 2022, published 2024).

Holding throughout (assay type): in vivo, BALB/C nude mice
Experiment [1] deals with human gastric cancer MGC803. The experiment is described as follows: Human gastric cancer MGC803 transplanted tumor in nude mice. Particulars: MGC803, 200 mg/kg ip × 14. As for the experimental part: A human gastric cancer MGC803 model transplanted into nude mice was used in the experiment to investigate the anti-tumor effect of test compounds.
(§1) Preparation: The compound was prepared as the injection at the desired concentration with sterile normal saline, prior to administration.
(§2) Animal strain: BALB/C nude mice (SPF grade), weight: 19-21 g, gender: male.
(§3) Number of animals in each treatment group: 8; number of animals in the control group: >12.
The tumor blocks of human gastric cancer MGC803 with good growth were cut into uniform small pieces of 3 mm under sterile conditions, and then subcutaneously inoculated into the right armpit of each mouse with a cannula. These mice were divided into 9 groups, 8 mice for each treatment group, while more than 12 mice were included in the control group.
(§4) 14 days after inoculation, the average volume of the tumor block was about 100 mm^3. The animals were regrouped based on the size of the tumor, and the animals with tumors that were too large and too small were sifted out. For each group, the average volume of tumors was basically the same, and then the mice were initially treated with test compounds. The mice were intraperitoneally injected once a day for 14 days, at a dosage of 0.2 mL/20 g body weight. From the 14th day of inoculation, the long diameter a (mm) of the tumor, together with the perpendicular short diameter b (mm), was measured using a digital electronic caliper, twice a week. The calculation formula of tumor volume is: TV=ab^2/2, and the formula for calculating the relative tumor volume is RTV=Vt/Vo, wherein Vo denotes the tumor volume measured when the mice were divided into groups(i.e. d1), and Vt is the tumor volume from each measurement.
(§5) The result determination is based on the following formula: […]

For experiment [2], the system named is human ovarian cancer A2780. Description: Human ovarian cancer A2780 transplanted tumor in nude mice. Conditions: A2780, 200 mg/kg ip × 14. The procedure: A human ovarian cancer A2780 model transplanted into nude mice was used in the experiment to investigate the anti-tumor effect of test compounds.
as §1, §2, §3
The tumor blocks of human ovarian cancer A2780 growing well were cut into uniform small pieces of 3 mm under sterile conditions, and then subcutaneously inoculated into the right armpit of each mouse with a cannula. The mice were divided into 9 groups, 8 mice for each treatment group, while >12 mice were included in the control group.
as §4, with “weight; the mice in the control group were given the same volume of sterile normal saline.” for “weight.”, “groups (i.e.” for “groups(i.e.”
as §5

Experiment [3] has as its system human renal cell carcinoma AGHN. The experiment is described as follows: Human renal cell carcinoma AGHN transplanted tumor in nude mice. The procedure:
A human renal cell carcinoma AGHN model transplanted into nude mice was used in the experiment to investigate the anti-tumor effect of test compounds. […] AGHN was measured.
as §1
Animal strain: BALB/C, nude mice (SPF grade), weight: 19-21 g, gender: male. Number of animals in each treatment group: 8; number of animals in the control group: >12.
The tumor blocks of human renal cell carcinoma AGHN with good growth were cut into uniform small pieces of 3 mm under sterile conditions, and then subcutaneously inoculated into the right armpit of each mouse with a cannula. The mice were divided into 9 groups, 8 mice for each treatment group, while >12 mice were included in the control group.
(§6) 14 days after inoculation, the average volume of the tumor block was about 100 mm^3, The animals were regrouped based on the size of the tumor, and the animals with tumors that were too large and too small were sifted out. For each group, the average volume of tumors was basically the same, and then the mice were initially treated with test compounds. The mice were intraperitoneally injected once a day for 14 days, at a dosage of 0.2 mL/20 g body weight; the mice in the control group were given the same volume of sterile normal saline. From the 14th day of inoculation, the long diameter a (mm) of the tumor, together with the perpendicular short diameter b (mm), was measured using a digital electronic caliper, twice a week. The calculation formula of tumor volume is: TV=ab^2/2, and the formula for calculating the relative tumor volume is: RTV=Vt/Vo, wherein Vo denotes the tumor volume measured when the mice were divided into groups (i.e. d1), and Vt denotes the tumor volume from each measurement.
as §5

In experiment [4] the test system is human prostate cell LNCaP. The experiment is described as follows: Human prostate cell LNCaP transplanted tumor in nude mice. As for the experimental part:
A human prostate cell LNCaP model transplanted into nude mice was used in the experiment to investigate the anti-tumor effect of test compounds.
as §1, §2, §3
The tumor blocks of human prostate cell LNCaP with good growth were cut into uniform small pieces of 3 mm under sterile conditions, and then subcutaneously inoculated into the right armpit of each mouse with a cannula. The mice were divided into 9 groups, 8 mice for each treatment group, while >12 mice were included in the control group,
as §6, with “mm^3.” for “mm^3,”, “out,” for “out.”, “RTV=Vt/[…],” for “RTV=Vt/Vo,”
as §5

[5] abbreviates: 200 mg/kg ip × 14, listed as compound 4, 200 mg/kg.

Marks after values point to notes of the source that are not given here.

`COc1ccc(/C=C(/C(=O)O)c2cc(OC)c(OC)c(OC)c2)c(O)c1O` [Compound 1, (E)-3-(2,3-dihydroxy-4-methoxyphenyl)-2-(3,4,5-trimethoxylphenyl)acrylic acid]: the “RTV (d 18)” value came out at 5.87 ± 0.63 in experiment [1], 5.63 ± 0.72 in experiment [2], 6.31 ± 0.91 in experiment [3] (200 mg/kg ip × 14) and 4.92 ± 0.82 in experiment [4] (200 mg/kg ip × 14). The “Tumor inhibitory rate %” value is listed as 49.05^## % in experiment [1], 45.39^## % in experiment [2], 54.24^## % in experiment [3] (200 mg/kg ip × 14) and 56.27^## % in experiment [4] (200 mg/kg ip × 14).
Consider `COc1cc(/C=C(/C(=O)O)c2cc(OC)c(OC)c(OC)c2)cc(OC)c1` [Compound 3, (E)-3-(3,5-dimethoxyphenyl)-2-(3,4,5-trimethoxyphenyl)acrylic acid], for which the “RTV (d 18)” value in experiment [1] turned out to be 4.79 ± 0.54; in experiment [3] (200 mg/kg ip × 14), 5.47 ± 0.82; in experiment [4] (200 mg/kg ip × 14), 4.77 ± 0.71. Also, the “Tumor inhibitory rate %” value is listed as 58.42^## % in experiment [1], 60.33^# % in experiment [3] (200 mg/kg ip × 14) and 60.87^## % in experiment [4] (200 mg/kg ip × 14).
For `COc1ccc(/C=C(/C(=O)O)c2cc(OC)c(OC)c(OC)c2)cc1F` [Compound 4, (E)-3-(3-fluoro-4-methoxyphenyl)-2-(3,4,5-trimethoxyphenyl)acrylic acid], the “RTV (d 18)” value in experiment [2] is recorded as 4.51 ± 0.67; in experiment [3] (200 mg/kg ip × 14), 4.31 ± 0.58; in experiment [4] (200 mg/kg ip × 14), 3.73 ± 0.60. Moreover, the “Tumor inhibitory rate %” value in experiment [2] is 56.26^## %; in experiment [3] (200 mg/kg ip × 14, 200 mg/kg), 68.75%; in experiment [3] (setting [5]), “best inhibitory effect on renal cell carcinoma”; in experiment [4] (200 mg/kg ip × 14, 200 mg/kg), 69.40%; in experiment [4] (setting [5]), “best inhibitory effect on prostate cancer”.
With `COc1ccc(/C=C(/C(=O)O)c2cc(OC)c(OC)c(OC)c2)cc1O` [Compound 6, (E)-3-(3-hydroxy-4-methoxyphenyl)-2-(3,4,5-trimethoxyphenyl)acrylic acid], the “RTV (d 18)” value in experiment [1] was 3.43 ± 0.51; in experiment [2], 3.58 ± 0.49; in experiment [3] (200 mg/kg ip × 14), 6.53 ± 0.85; in experiment [4] (200 mg/kg ip × 14), 4.27 ± 0.92. Further, the “Tumor inhibitory rate %” value in experiment [1] was 70.23%; in experiment [1] (listed as compound 6), “best inhibitory effect on gastric cancer”; in experiment [2], 65.28%; in experiment [2] (listed as compound 6) it was “best inhibitory effect on ovarian cancer”; in experiment [3] (200 mg/kg ip × 14), 52.64^## %; in experiment [4] (200 mg/kg ip × 14), 64.97^# %.
Turning to `COc1cc(/C(=C\c2cc(O)c(OC)c(F)c2)C(=O)O)cc(OC)c1OC` [Compound 8, (E)-3-(5-fluoro-3-hydroxy-4-methoxyphenyl)-2-(3,4,5-trimethoxyphenyl)acrylic acid], the “RTV (d 18)” value in experiment [1] is on record as 4.59 ± 0.47; in experiment [2], 5.21 ± 0.47; in experiment [3] (200 mg/kg ip × 14), 6.22 ± 0.63; in experiment [4] (200 mg/kg ip × 14) it was 6.72 ± 0.85. Moreover, the “Tumor inhibitory rate %” value is on record as 60.16^## % in experiment [1], 49.47^## % in experiment [2], 54.89^## % in experiment [3] (200 mg/kg ip × 14) and 44.87^## % in experiment [4] (200 mg/kg ip × 14).
`COc1ccc(/C=C(/C(=O)O)c2cc(OC)c(OC)c(OC)c2)c(F)c1O` [Compound 9, (E)-3-(2-fluoro-3-hydroxy-4-methoxyphenyl)-2-(3,4,5-trimethoxyphenyl)acrylic acid]: the entries for the “RTV (d 18)” value in experiment [2] and in experiment [3] (200 mg/kg ip × 14) were 4.37 ± 0.62 and 5.12 ± 0.77, respectively. Further, the “Tumor inhibitory rate %” value is 57.61^# % in experiment [2] and 62.87^# % in experiment [3] (200 mg/kg ip × 14).
Turning to `COc1cc(/C=C(/C(=O)[O-])c2cc(OC)c(OC)c(OC)c2)cc(OC)c1F.[K+]` [Compound 10], the “RTV (d 18)” value in experiment [1] is on record as 4.21 ± 0.58; in experiment [2], 4.26 ± 0.73; in experiment [4] (200 mg/kg ip × 14), 4.55 ± 0.81. Moreover, the “Tumor inhibitory rate %” value is 63.45^# % in experiment [1], 58.68^# % in experiment [2] and 62.67^# % in experiment [4] (200 mg/kg ip × 14).
With `COc1cc(/C(=C\c2cc(O)c(OC)c(O)c2)C(=O)O)cc(OC)c1OC` [Compound 11, (E)-3-(3,5-dihydroxy-4-methoxyphenyl)-2-(3,4,5-trimethoxyphenyl)acrylic acid], in experiment [1], the “RTV (d 18)” value is 4.72 ± 0.61 and the “Tumor inhibitory rate %” value is reported as 59.03^## %.
